Reference: publication PMC12006963, “Application of Deuterium in an M1 Positive Allosteric Modulator Back-Up Program: The Discovery of VU6045422” (ACS Chemical Neuroscience, 2025)

Assays:
[1] = design: method as in doi:10.1002/alz.045339, doi:10.1016/j.jagp.2021.01.038; conditions: humans, phase I, upon increasing dose of 1; cited from earlier work
[2] = Hepatocyte metabolite identification (monkey); format: in vitro ADME; conditions: monkey hepatocytes; for % Total Peak Area, oxidative metabolite formed: 2 from 1, 4 from 3, 6 from 5
Experimental: (§1) Prior to full characterization of deuterated analogues 3 and 5, they were incubated in rat, dog, monkey, and human hepatocytes, along with 1, to determine the amount of parent remaining, as well as the degree of undesired oxidative metabolites 2, 4, and 6 (Figure 2). […] For the gem-dideutero congener 3, metabolic stability was improved in vitro. […] Thus, in hepatocytes in vitro, the kinetic isotope effect engendered greater metabolic stability of the labile hot spot on the lactam. It remained to be seen if this effect would translate in vivo, but we first had to assess the impact of the deuterated analogues on molecular pharmacology, in vitro DMPK, standard low-dose in vivo DMPK and, if warranted, in vivo efficacy in a rat novel object recognition (NOR) behavioral assay.

[3] = molecular target: T1, M1 (Homo sapiens, UniProt P11229); assay: M1 PAM activity of oxidative metabolites; format: cell-based; conditions: in words
T1 construct: expressed in transfected cells
T1 sequence (P11229 1-460): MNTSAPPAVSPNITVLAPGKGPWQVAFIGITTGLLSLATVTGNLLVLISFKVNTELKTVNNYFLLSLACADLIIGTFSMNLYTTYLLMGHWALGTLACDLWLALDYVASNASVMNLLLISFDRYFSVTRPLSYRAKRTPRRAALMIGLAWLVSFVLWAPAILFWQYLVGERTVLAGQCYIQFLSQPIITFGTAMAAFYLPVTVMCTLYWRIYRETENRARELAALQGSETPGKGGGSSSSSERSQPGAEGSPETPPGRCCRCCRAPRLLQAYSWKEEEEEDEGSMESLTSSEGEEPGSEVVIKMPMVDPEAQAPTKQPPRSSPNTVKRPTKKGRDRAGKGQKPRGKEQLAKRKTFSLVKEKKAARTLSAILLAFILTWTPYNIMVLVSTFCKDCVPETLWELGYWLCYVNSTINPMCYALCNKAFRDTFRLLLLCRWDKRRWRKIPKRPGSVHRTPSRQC
Experimental: Procedures for Biological Experiments
Calcium mobilization assays:
All functional cell-based assays were performed in stable Chinese Hamster Ovary (CHO) cell lines constitutively expressing human M5 or human M1 receptors. For full muscarinic selectivity, CHO cells expressing human M3, human M2 plus Gqi5 or human M4 plus Gqi5 were used. Cells were plated at 15,000 cells per 20 µL per well in black 384-well, TC-treated, clear-bottomed plates (Greiner) in Ham’s F12 medium supplemented with 10% FBS and 20 mM HEPES. Cells were incubated overnight at 37 °C under 5% CO2. The following day, the medium was removed and replaced with 1.2 µM Fluo-4 AM (Invitrogen) in assay buffer (Hank’s Balanced Salt Solution supplemented with 20 mM HEPES and 2.5 mM Probenecid, pH 7.4) and the cells were incubated for 50 minutes at 37 °C under 5% CO2. Dye was then removed and replaced with 20 µL of fresh assay buffer. Test compounds at a 10 mM concentration in DMSO were serially diluted in DMSO (either 1:3 or 1:5 dilution) to create a 10-point concentration series. The DMSO solutions were then diluted in assay buffer resulting in compound solutions at 2-times the final assay concentration with the highest assay concentration of 30 µM. The compound plate, cell plate, and plates containing EC20 and EC80 acetylcholine concentrations were placed in a Hamamatsu FDSS 6000 or 7000 kinetic imaging plate reader equipped to measure Ex480/Em540 fluorescence. Data were collected at 1 frame per second. After 2 seconds of collecting baseline fluorescence, 20 µL of the compound solutions were added to the cell plate. This was followed by the addition of an EC20 concentration of acetylcholine at 142 seconds. […] The fluorescence signal was collected for a total of 300 seconds. […] Data were imported and analyzed in Dotmatics Informatics software. by normalizing all data in the individual kinetic traces to the initial fluorescence read. The magnitude of each agonist addition was then determined and normalized to the average maximum response. […] The IC50 determined using the EC80 of acetylcholine is the value reported. […]

[4] = Hepatocyte metabolite identification (rat); format: in vitro ADME; conditions: rat hepatocytes; 2 from 1, 4 from 3, 6 from 5
Experimental: as §1

[5] = Hepatocyte metabolite identification (human); format: in vitro ADME; conditions: human hepatocytes; for % Total Peak Area, oxidative metabolite formed: 2 from 1, 4 from 3, 6 from 5
Experimental: as §1

[6] = Hepatocyte metabolite identification (dog); format: in vitro ADME; conditions: dog hepatocytes; 2 from 1, 4 from 3, 6 from 5
Experimental: as §1

[7] = Rat 14-day exploratory toxicology and toxicokinetic study; format: in vivo; conditions: rat 14-day study; for ratio AUC (%) / ratio Cmax (%): 6 relative to 5
Source text: (§2) To this end, we prepared a 200 g lot of PAM 5 and performed, in parallel, a dog maximum tolerated dose (MTD) with a pharmacokinetics study and a 14-day rat exploratory toxicology and toxicokinetic study, quantifying plasma Cmax and AUC for both parent 5 and metabolite 6. […] Moreover, while exposure increased with dose, it was nonlinear. […] The series was terminated based on (1) poor and less than dose-proportional increases in systemic exposure, (2) lack of a kinetic isotope effect to diminish production of 6 in dogs and rats, and (3) strong likelihood of even higher concentrations of 6 to be present in man.

[8] = Dog MTD with pharmacokinetics study; format: in vivo; conditions: dog MTD; for ratio AUC (%) / ratio Cmax (%): 6 relative to 5; for AUC / Cmax: plasma
Source text: as §2

[9] = day 14, 300 mg/kg PO of 5, plasma
[10] = day 14, 750 mg/kg PO of 5, plasma
[11] = day 14, 1500 mg/kg PO of 5, plasma

Structure (SMILES): Cn1cc2c(-c3cc(F)c(CN4C(=O)c5cccnc5C4O)c(F)c3)cccc2n1 (stereo not shown) [compound 2]
- share of the total drug-related area under the curve (AUC) [1]: > 50%
- % Total Peak Area, oxidative metabolite formed [2]: 74.3%
- M1 PAM activity [3]: inactive
- % Total Peak Area, oxidative metabolite formed [4]: 23.7%
- % Total Peak Area, oxidative metabolite formed [5]: 34.9%
- % Total Peak Area, oxidative metabolite formed [6]: 28.3%

Structure (SMILES): [2H]C1(O)c2ncccc2C(=O)N1Cc1c(F)cc(-c2cccc3nn(C)cc23)cc1F (stereo not shown) [compound 4]
- reduction in oxidative metabolite production versus 2 from 1 [2]: > 50%
- % Total Peak Area, oxidative metabolite formed [2]: 30.3%
- M1 PAM activity [3]: inactive
- % Total Peak Area, oxidative metabolite formed [4]: 7.8%
- reduction in oxidative metabolite production versus 2 from 1 [5]: 50%
- % Total Peak Area, oxidative metabolite formed [5]: 15.2%
- % Total Peak Area, oxidative metabolite formed [6]: 5.5%

Structure (SMILES): [2H]C1(O)c2ncccc2C(=O)N1Cc1c(F)cc(-c2cccc3nn(C([2H])([2H])[2H])cc23)cc1F (stereo not shown) [compound 6]
- ratio AUC (%) ([7]; day 14, 300 mg/kg PO of 5): 28%
- ratio Cmax (%) ([7]; day 14, 300 mg/kg PO of 5): 30%
- AUC at 14 days [7, 9]: 89500 ng·h/mL
- Cmax at 14 days [7, 9]: 6740 ng/mL
- ratio AUC (%) ([7]; day 14, 750 mg/kg PO of 5): 23%
- ratio Cmax (%) ([7]; day 14, 750 mg/kg PO of 5): 23%
- AUC at 14 days [7, 10]: 125000 ng·h/mL
- Cmax at 14 days [7, 10]: 7340 ng/mL
- ratio AUC (%) ([7]; day 14, 1500 mg/kg PO of 5): 28%
- ratio Cmax (%) ([7]; day 14, 1500 mg/kg PO of 5): 32%
- AUC at 14 day [7, 11]: 143000 ng·h/mL
- Cmax at 14 days [7, 11]: 9890 ng/mL
- % Total Peak Area, oxidative metabolite formed [2]: 21%
- % Total Peak Area, oxidative metabolite formed ([2]; listed as VU6045587): 21.0%
- M1 PAM activity [3]: inactive
- % Total Peak Area, oxidative metabolite formed [4]: 8.1%
- % Total Peak Area, oxidative metabolite formed [5]: 4.9%
- % Total Peak Area, oxidative metabolite formed [6]: 4.1%
- ratio AUC (%) ([8]; 30 mg/kg PO of 5): 18%
- ratio Cmax (%) ([8]; 30 mg/kg PO of 5): 19%
- AUC ([8]; 30 mg/kg PO of 5): 6240 ng·h/mL
- Cmax ([8]; 30 mg/kg PO of 5): 455 ng/mL
- ratio AUC (%) ([8]; 300 mg/kg PO of 5): 21%
- ratio Cmax (%) ([8]; 300 mg/kg PO of 5): 23%
- AUC ([8]; 300 mg/kg PO of 5): 14100 ng·h/mL
- Cmax ([8]; 300 mg/kg PO of 5): 818 ng/mL
- ratio AUC (%) ([8]; 1000 mg/kg PO of 5): 19%
- ratio Cmax (%) ([8]; 1000 mg/kg PO of 5): 17%
- AUC ([8]; 1000 mg/kg PO of 5): 19200 ng·h/mL
- Cmax ([8]; 1000 mg/kg PO of 5): 972 ng/mL
